Assay results: US10744122B2, “Transdermal therapeutic system containing valentonin and use thereof as a medicament” (Soeur Josefa Menendez, priority 2015, dated 2020)
Read-outs that look alike come from different tables or passages of the source. Blank lines part the entries; values can stand above or below the compound they belong to.

Columns and labels:
[1] = Extrapolation to humans of the PK parameter values observed in dogs; assay type: in vivo; conditions: human, for a body weight of 64 kg in humans, extrapolated from dogs, read-out: Vdss
Excerpt: As the pharmacokinetic profiles, i.e., the pharmacokinetic parameter values, are identical in humans and dogs, just as in all […] animals, it is possible to extrapolate to humans the PK parameter values observed in dogs.

[2] = Stability in acidic gastric medium; assay type: physicochemical
[3] = Stability of melatonin in frozen human plasma during freeze-thaw cycles (HPLC-MS/MS); assay type: in vitro ADME; conditions: human plasma samples stored at about −20° C.
Experimental: Between each cycle, the samples will be maintained under storage temperature conditions (about −20° C.) identical to those used for normal analysis of the samples.

[4] = Stability of the plasma extract in the injection solvent at about +4° C.; assay type: physicochemical, human; conditions: for Deviation T0 + 24 h/T0: stored on an autosampler
Experimental: The plasma extracts will be analyzed repeatedly during the validation period in order to check for possible degradation of the compounds during storage in the solvent at about +4° C. The evaluation of stability is based on the back-calculated concentrations, which should be within ±15% (except for LOQ±20%), and an acceptable chromatographic peak shape.

[5] = cited from earlier work

Compound: C=C1c2[nH]c3ccc(OC)cc3c2CCN1C(C)=O [Valentonin, 2-acetyl-6-methoxy-1-methylene-3,4-dihydro-β-carboline]
Vd ([1]; in vivo): 320 L
Stability in acidic gastric medium [2]: completely hydrolyzed in acidic gastric medium
Stability in acidic gastric medium ([2]; listed as VLT): completely degraded in acidic gastric medium

Effect of freeze-thaw cycles on stability [3]: no effect on the stability
Deviation T0 + 24 h/T0 ([4]; 2 pg/ml): 1.65%
Deviation T0 + 24 h/T0 ([4]; 200 pg/ml): 3.33%
Time sample extracts were stable in the injection solvent ([4]; injection vials stored at about +4° C., after the first injection): at least 24 hours
Compound: COc1ccc2[nH]cc(CCNC(C)=O)c2c1 [melatonin]
Maximum plasma concentrations observed from 1 a.m. onwards, mean value ([5]; 12 older subjects): 45.6 pg/mL
Maximum plasma concentrations observed from 1 a.m. onwards, mean value ([5]; 12 young subjects): 54.5 pg/mL

Compound: COc1ccc2[nH]c3c(c2c1)CCN=C3C [6-Methoxyharmalan, 6-methoxy-1-methyl-3,4-dihydro-β-carboline]
Vd ([1]; plasma, intravenous): 960 L
